According to US9095161B2, “Preparation and use of methionylmethionine as feed additive for fish and crustaceans” (EVONIK DEGUSSA GmbH, priority 2008, dated 2015):

Columns and labels:
chickens = settings: cited from earlier work
[1] = tested on: enzyme cocktail of digestive and liver enzymes from carp
Experimental: The method for isolating the digestive enzymes was based on that of EID and MATTY (Aquaculture 1989, 79, 111-119). […] To isolate liver enzymes, the livers were isolated, homogenized and treated in analogy to the processing of the intestinal enzymes in example 22. The procedure for enzyme isolation from the pancreas was also analogous thereto.
D-Methionine was taken up in buffer solution, and the enzyme solution was added. A blank without enzyme solution was made up in each case as comparison and for estimating the purely chemical transformation rate. After 24 hours, a sample was taken and the composition was detected and quantified with the aid of calibrated HPLC.

[2] = Leaching characteristics from feed pellets under water; assay type: physicochemical; settings: for dissolved out of feed pellets under water: 20.0 g pellets in 200 g water, 20° C.; for leaching compared with DL-methionine, MHA and calcium-MHA: compound feed pellets under water, identical conditions
From the text: The feed matrix used was a methionine-deficient feed mixture of conventional ingredients such as, for example, soybean meal, soybean oil, cornstarch, wheat meal, fish meal, cellulose, crystalline essential amino acids and minerals and vitamins as premixes. This mixture was then supplemented batchwise in 20 kg batches in each case with the methionine derivatives stated in table 5, with a 0.25% supplementation rate (based on sulfur equivalents), and was homogenized and then pelleted with steam treatment. As comparison with methionylmethionine (I), a pelleting experiment was carried out in each case with DL-methionine, MHA (methionine hydroxy analog) and calcium MHA. In addition, a control experiment was carried out by pelleting without addition of a methionine derivative (see table 5). The leaching characteristics of the diastereomers of methionylmethionine (I) from the feed pellets was then investigated under water. In this case, the dissolving out of methionylmethionine under water as a function of time, temperature, water composition (salt or fresh water) was determined. […] All the Erlenmeyer flask was subsequently agitated continuously with a laboratory shaker at a constant temperature of 20° C. Then, at defined time intervals, a sample of water was removed in each case and the content of the individual pairs of methionylmethionine diastereomers in the water was determined by HPLC (see table 7). For comparison, in each case the feed pellets supplemented with DL-methionine, MHA or calcium MHA were investigated under the same conditions and thus their leaching characteristics under water determined under the respective conditions (see FIG. 5 and table 7).

[3] = Stability during pelleting and steam treatment of the feed mixture; assay type: physicochemical; settings: mixtures with natural protein and carbohydrate sources
From the text: The feed matrix used was a methionine-deficient feed mixture of conventional ingredients such as, for example, soybean meal, soybean oil, cornstarch, wheat meal, fish meal, cellulose, crystalline essential amino acids and minerals and vitamins as premixes. This mixture was then supplemented batchwise in 20 kg batches in each case with the methionine derivatives stated in table 5, with a 0.25% supplementation rate (based on sulfur equivalents), and was homogenized and then pelleted with steam treatment. As comparison with methionylmethionine (I), a pelleting experiment was carried out in each case with DL-methionine, MHA (methionine hydroxy analog) and calcium MHA. In addition, a control experiment was carried out by pelleting without addition of a methionine derivative (see table 5). In this case, the amino acid determination was based on EU method 98/64/EC. After extraction of the free amino acids and methionylmethionine (I), these were subsequently determined with the aid of an amino acid analyzer by post-column derivatization with ninhydrin (see table 6).

Litopenaeus vannamei = settings: feeding experiments; cited from earlier work

Row | Molecule | biological value (chickens) | biotransformation of D-methionine to L-methionine [1] | dissolved out of feed pellets under water ([2]; Time 0) | dissolved out of feed pellets under water ([2]; Time 5) | dissolved out of feed pellets under water ([2]; Time 10) | dissolved out of feed pellets under water ([2]; Time 15) | dissolved out of feed pellets under water ([2]; Time 30) | dissolved out of feed pellets under water ([2]; Time 60) | dissolved out of feed pellets under water ([2]; Time 120) | dissolved out of feed pellets under water ([2]; Time 210) | leaching compared with DL-methionine, MHA and calcium-MHA [2] | stability during pelleting, extrusion and steam treatment [3] | stability during pelleting, extrusion and steam treatment ([3]; listed as DL-methionyl-DL-methionine (I)) | stability during pelleting, extrusion and steam treatment ([3]; listed as methionylmethionine (I)) | maximum dissolved out of the feed pellets ([2]; after a residence time of 200 min) | activity as feed additive compared with L-methionine (Litopenaeus vannamei)
1 | poly-L-methionine | lack of biological value |  |  |  |  |  |  |  |  |  |  |  |  |  |  | 
2 | CSCC[C@@H](N)C(=O)O [D-methionine] |  | may be transformed into L-methionine |  |  |  |  |  |  |  |  |  |  |  |  |  | 
3 | CSCCC(N)C(=O)NC(CCSC)C(=O)O (mixture of isomers) [LL/DD/LD/DL-I, DL-methionyl-DL-methionine] |  |  | 1.5% | 2.0% | 3.2% | 3.6% | 5.4% | 9.5% | 12.3% | 17.0% | distinctly less leaching | stable | absolutely stable | remained stable |  | 
4 | CSCCC(N)C(=O)NC(CCSC)C(=O)O (stereo not shown) [LL/DD-I, DD/LL-methionylmethionine] |  |  | 2.7% | 3.7% | 6.5% | 7.7% | 12.1% | 20.6% | 27.4% | 35.9% | distinctly less leaching |  |  |  |  | 
5 | CSCCC(N)C(=O)NC(CCSC)C(=O)O (stereo not drawn) [DL/LD-I, DL/LD-methionylmethionine] |  |  | 0.6% | 0.7% | 0.9% | 0.6% | 0.6% | 1.7% | 1.7% | 3.8% | distinctly less leaching |  |  |  | ≤ 5% | 
6 | CSCCC(O)C(=O)O (racemic) [MHA, rac-2-hydroxy-4-(methylthio)butanoic acid, reference compound] |  |  | 6.0% | 12.8% | 20.8% | 28.8% | 50.5% | 75.4% | 94.1% | 99.9% |  |  |  |  |  | 
7 | CSCCC(N)C(=O)O (racemic) [Methionine, DL-methionine] |  |  | 4.0% | 12.0% | 16.0% | 24.0% | 39.9% | 59.9% | 79.8% | 87.8% |  |  |  |  |  | same activity as L-methionine
8 | CSCCC(O)C(=O)[O-].CSCCC(O)C(=O)[O-].[Ca+2] (stereo not shown) [MHA-Ca, reference compound] |  |  | 8.6% | 16.5% | 28.2% | 39.4% | 61.7% | 82.4% | 94.1% | 97.0% |  |  |  |  |  | 
